Measured values reported in patent publication US20080221070A1, “METHODS AND COMPOUNDS FOR THE TARGETED DELIVERY OF AGENTS TO BONE FOR INTERACTION THEREWITH” (priority 2007, published 2008).

Assays:
[1] = tested on: bilaterally ovariectomized (OVX) rats; assay: Uterine mass and uterine mass to body weight ratio in OVX rats; assay type: in vivo, Sprague-Dawley female rats; details: for effect on uterine mass to body weight ratio: FIG. 9
Experimental: (§1) Animals. Six month old, bilaterally ovariectomized (OVX) or sham operated Sprague-Dawley female rats (Harlan Laboratories, Indianapolis, Ind.) were maintained at the University of Louisville Research Resources Center at 22° C. with a 12-h light/dark cycle and ad libitum access to tap water and rodent chow (Purina Laboratory Rodent Diet 5001). All animal procedures were approved by the Institutional Animal Care and Use Committee, which is certified by the American Association for Accreditation of Laboratory Animal Care.
(§2) In vivo experiments were conducted in order to investigate the efficacy of compounds of the presently-disclosed subject matter. In all of the experiments, OVX and sham operated rats were randomly divided into groups of 5-7 animals. In all of the studies experimental groups included: i) Sham-operated control (euthanized six weeks post surgery as a pretreatment control), ii) OVX control (euthanized six weeks post surgery as a pretreatment control), iii) Sham control receiving vehicle, iv) OVX control receiving vehicle, v) OVX receiving 17-ethinyl estradiol (equimolar concentration with a selected test compound), vi) OVX receiving alendronate (1.6 mg/kg), and vii) OVX receiving parathyroid hormone 1-34 (PTH) (80 μg/kg). 17-ethinyl estradiol (17 EE) is a free estrogenic agent known to be orally active, and can serve as an example of an anti-catabolic agent. Alendronate (Alen) is a bisphosphonate that is currently used to treat osteoporosis (e.g., Fosamax®, Merck & Co., Inc,), and can serve as an example of an anti-catabolic agent. Parathyroid hormone 1-34 (PTH) is an agent that can serve as an example of an anabolic agent. All compounds and vehicle (1% DMSO in corn oil) were administered three times per week orally by gavage except for PTH which was administered via a subcutaneous injection in a volume of 0.5 ml/kg body mass thrice per week. Compound administration was initiated 6 weeks following surgery and lasted for 6 weeks (18 doses total).
(§3) Compounds of the presently-disclosed subject matter were orally administered to OVX rats at various doses. As indicated above all BTE's were administered three times per week for 6 weeks.
(§4) Following 6 weeks of treatment, blood was obtained from each animal via cardiac puncture following an overnight fast and animals were subsequently euthanized via carbon dioxide asphyxiation. Blood was centrifuged immediately and the obtained serum samples were aliquoted and stored at −70° C. prior to analysis. Uteri were removed and fresh weights were obtained. Uterine masses were normalized to body mass at the end of the experiment. The left and right femora and left and right tibiae were subsequently collected from each animal, cleaned of soft tissue, and stored in saline at 4° C. prior to analysis.
Uterine Mass and Body Weight. […] Uterine mass can be used to as a measure of estrogenic effect occurring in a tissue outside the bone in response to treatment with a test compound or composition. Generally, a lower uterine mass can be associated with a decreased risk of adverse side effects associated with the test compound or composition. A ratio of uterine mass to body weight can be used to correct for any increase in uterine size attributable to the relative size of the individual animal. Body weight and/or uterine mass also serve as an indirect measures of toxicity of a test compound.

[2] = tested on: bilaterally ovariectomized (OVX) rats; assay: Femoral density via Archimedes' Principle (whole bone); assay type: in vivo, Sprague-Dawley female rats; details: right femora
Experimental: as §1, §2
Following 6 weeks of treatment, blood was obtained from each animal via cardiac puncture following an overnight fast and animals were subsequently euthanized via carbon dioxide asphyxiation. Blood was centrifuged immediately and the obtained serum samples were aliquoted and stored at −70° C. prior to analysis. Uteri were removed and fresh weights were obtained. […]
Femoral Density via Archimedes' Principle. […] Densities were determined using Archimedes' Principle according to the following formula: density=[mass of hydrated femur/(mass of hydrated femur−mass of hydrated femur submerged in water)]×density of distilled water at a given temperature (See Keenan, et al. Comparison of bone density measurement techniques: DXA and Archimedes' principle. J Bone Miner Res 1997; 12:1903-7.). […]

[3] = tested on: bilaterally ovariectomized (OVX) rats; assay: Volume fraction, ex vivo micro-computed tomography of tibia; assay type: in vivo, Sprague-Dawley female rats; details: for bone density by trabecular volume fraction: ex vivo micro-CT, compared to OVX animals, FIG. 14; for bone density in three-dimensional micro-CT images: reconstructed images, FIG. 15
Experimental: as §1, §2, §4
Volume Fraction—Ex vivo micro-computed tomography (μCT). Volume fraction is a representative value for the amount of bone that occupies a given volume or space. […]

[4] = tested on: bilaterally ovariectomized (OVX) rats; assay: Lipid metabolism (total cholesterol, HDL, LDL) in rat serum; assay type: in vivo, Sprague-Dawley female rats; details: present-tense statement, no data
Experimental: as §1
(§5) In vivo experiments were conducted in order to investigate the efficacy of compounds of the presently-disclosed subject matter. In all of the experiments, OVX and sham operated rats were randomly divided into groups of 5-7 animals. […]
Quantitative Determination of Lipid Metabolism (Total Cholesterol HDL, and LDL) in Rat Serum. Total cholesterol, high-density lipoprotein (HDL), and low-density lipoprotein (LDL) were quantitatively determined in the serum of rats in order to evaluate the extraosseous effects of estrogen treatment on lipid metabolism. […]

[5] = tested on: bilaterally ovariectomized (OVX) rats; assay: Regional femoral density via Archimedes' Principle; assay type: in vivo, Sprague-Dawley female rats
Experimental: as §1, §2
Following 6 weeks of treatment, blood was obtained from each animal via cardiac puncture following an overnight fast and animals were subsequently euthanized via carbon dioxide asphyxiation. Blood was centrifuged immediately and the obtained serum samples were aliquoted and stored at −70° C. prior to analysis. Uteri were removed and fresh weights were obtained. Uterine masses were normalized to body mass at the end of the experiment. […]
Regional Femoral Density via Archimedes' Principle. […] Briefly, each femur was measured with a Cen-Tech Digital Caliper and a cut was made from each end at 20% of the length of the femur plus half the width of the blade. Subsequently, the bone marrow was washed out of the femoral diaphysis and the Archimedes density for each of the three femoral regions was determined as described above.

[6] = Body weight of OVX rats during treatment; assay type: in vivo, Sprague-Dawley female rats
Experimental: as §1, §2, §3, §4
Uterine Mass and Body Weight. […]

[7] = tested on: bilaterally ovariectomized (OVX) rats; assay: Bone mechanical competence indentation test; assay type: in vivo, Sprague-Dawley female rats; details: proximal tibial metaphysis, present-tense statement, no data
Experimental: as §1
(§6) In vivo experiments were conducted in order to investigate the efficacy of compounds of the presently-disclosed subject matter. In all of the experiments, OVX and sham operated rats were randomly divided into groups of 5-7 animals. In all of the studies experimental groups included: i) Sham-operated control (euthanized six weeks post surgery as a pretreatment control), ii) OVX control (euthanized six weeks post surgery as a pretreatment control), iii) Sham control receiving vehicle, iv) OVX control receiving vehicle, v) OVX receiving 17-ethinyl estradiol (equimolar concentration with a selected test compound), vi) OVX receiving alendronate (1.6 mg/kg), and vii) OVX receiving parathyroid hormone 1-34 (PTH) (80 μg/kg). 17-ethinyl estradiol (17 EE) is a free estrogenic agent known to be orally active, and can serve as an example of an anti-catabolic agent. […]

[8] = tested on: bilaterally ovariectomized (OVX) rats; assay: Rat Osteocalcin EIA (serum); assay type: in vivo, Sprague-Dawley female rats; details: versus OVX controls; FIG. 17
Experimental: as §1, §5
Rat Osteocalcin EIA. […] Rat serum osteocalcin levels were measured using the Rat Osteocalcin EIA Kit from Biomedical Technologies, Incorporated (Stoughton, Mass.) as recommended by the manufacturer.

[9] = tested on: bilaterally ovariectomized (OVX) rats; assay: RatLaps ELISA for C-telopeptide fragments of collagen type I (CTX-I) in serum; assay type: in vivo, Sprague-Dawley female rats; details: Formulas 66 and 67 at 250 μg/kg doses, 17-ethinyl estradiol equimolar, FIG. 16
Experimental: as §1
as §6, with “agent. Alendronate (Alen) is a bisphosphonate that is currently used to treat osteoporosis (e.g., Fosamax®, Merck & Co., Inc,), and can serve as an example of an anti-catabolic agent. Parathyroid hormone 1-34 (PTH) is an agent that can serve as an example of an anabolic agent.” for “agent.”
RatLaps™ ELISA for C-telopeptide Fragments of Collagen Type I (CTX-I). […] Bone resorption (CTX-I) was quantitatively assessed in rat serum using the commercially available RatLaps™ ELISA KIT from Nordic Bioscience Diagnostics A/S (Herlev, Denmark) as recommended by the manufacturer.

ICR Swiss mice = assay: Periosteal bone formation in mouse calvarial injection model; assay type: in vivo; details: subcutaneous over calvariae; histomorphometry; present-tense statement, no data
Experimental: Stimulation of Periosteal Bone Formation in a Mouse Calvarial Injection Model. The anabolic (bone formation) potential of compounds of the presently-disclosed subject matter are evaluated in the mouse calvarial injection model. Briefly, 4-week-old ICR Swiss mice are injected subcutaneously over the surface of the calvariae with compounds of the presently-disclosed subject matter at concentrations of 0, 1, 3, and 10 mg/kg/day for 5 days (twice a day). Microtubule inhibitor TN-16 (5 mg/kg/day for 2 days, twice a day) are used as a positive control. Mice are sacrificed two weeks after the injections are completed. Dissected calvarial samples are fixed in 10% phosphate-buffered formalin for 2 days, decalcified in 10% EDTA for 2 weeks and then embedded in paraffin. Histological sections are cut and stained with H&E and orange G. New woven bone formation (new bone area) is quantified by histomorphometry using the OsteoMeasure system (OsteoMetrics Inc., Atlanta, Ga.).

[10] = Hydroxyapatite (HA) Binding Assay; details: binding to hydroxyapatite; 10^−5 M analyte, 50 mM Tris-HCl pH 7.4, 1% DMSO; tetracycline reference
Text: The supernatant was transferred to another microcentrifuge tube.

[11] = OVX rats, oral, test compounds 25 or 250 μg/kg, 17-ethinyl estradiol equimolar, 3 times per week for 6 weeks, FIG. 8
[12] = OVX rats, oral, test compounds 25 or 250 μg/kg, 17-ethinyl estradiol equimolar, 3 times per week for 6 weeks
[13] = proximal and distal left femur and left femoral diaphysis, oral 25 or 250 μg/kg, FIGS. 11, 12, 13
[14] = oral 25 or 250 μg/kg, 3 times per week for 6 weeks, FIG. 7
[15] = proximal and distal left femur, FIGS. 5 and 6
[16] = oral 3 times per week for 6 weeks, FIG. 1

Row | SMILES | effect on uterine mass [1, 11] | effect on uterine mass to body weight ratio [1, 12] | whole bone density ([2]; oral 25 or 250 μg/kg, FIG. 10) | bone density by trabecular volume fraction [3] | bone density in three-dimensional micro-CT images [3] | effect on lipid metabolism [4] | regional bone density [5, 13] | effect on body weight [6, 14] | bone strength [7] | serum osteocalcin levels [8] | production of CTX-I (bone resorption) [9] | new bone area (ICR Swiss mice) | Binding Index [10] | effect on uterine mass ([1]; rat, in vivo, po) | whole bone density ([2]; FIG. 4) | regional bone density [5, 15] | effect on body weight [6, 16]
1 | CCCCOP(=O)(OCCCC)Oc1ccc2c(c1)CCC1C2CC[C@]2(C)C1CC[C@H]2OCCC(=O)Nc1ccc(OC)c(C(N)=O)c1O (stereo partly drawn) [Formula 66] | limited or no effect | limited or no effect | in the same ranges as those animals receiving 17-ethinyl estradiol (17 EE), Alendronate (Alen), or Parathyroid hormone 1-34 (PTH) | increased | affected an increase | limited or no effect | increased | limited or no effect | increase | lower than in OVX controls | do not inhibit | increase |  |  |  |  | 
2 | C[C@]12CC[C@@H]3c4ccc(O)cc4CC[C@H]3[C@@H]1CC[C@@H]2O [17,β-estradiol] |  |  |  |  |  |  |  |  |  |  |  |  | −8 |  |  |  | 
3 | NC(=O)c1c(OCc2ccccc2)ccc(N)c1O [BTA-3] |  |  |  |  |  |  |  |  |  |  |  |  |  | no effect | not significantly effected | not significantly effected | no effect
4 | COc1ccc(NC(=O)CCO[C@@H]2CCC3C4CCc5cc(OP(=O)(OCc6ccccc6)OCc6ccccc6)ccc5C4CC[C@]32C)c(O)c1C(N)=O (stereo partly drawn) [Formula 67] | limited or no effect | limited or no effect | in the same ranges as those animals receiving 17-ethinyl estradiol (17 EE), Alendronate (Alen), or Parathyroid hormone 1-34 (PTH) | increased | affected an increase | limited or no effect | increased | limited or no effect | increase | lower than in OVX controls | do not inhibit | increase |  |  |  |  | 
5 | C#C[C@]1(O)CC[C@H]2[C@@H]3CCc4cc(O)ccc4[C@H]3CC[C@@]21C [17-ethinyl estradiol, reference compound] | induced an increase | induced an increase |  |  |  |  |  |  |  |  | decreased the production of CTX-1 to below sham levels |  |  |  |  |  | 
6 | COc1ccc(N)c(O)c1C(N)=O [BTA-2] |  |  |  |  |  |  |  |  |  |  |  |  |  | no effect | not significantly effected | not significantly effected | no effect
